According to patent publication US20260285871A1, “Polymorphic Compounds and Uses Thereof” (TYRA BIOSCIENCES, INC., priority 2022, published 2026):

Assay: Crystallization (polymorph) studies of compound A free base: fast/slow evaporation, slurry at 25° C., anti-solvent addition, vapor diffusion; solids analysed by XRPD
Assay type: physicochemical
Details: for FE: fast evaporative crystallization; for Results from Slow Evaporation Crystallization Experiments: slow evaporation at room temperature; for Slurry: slurry at 25° C., three days
Procedure: (§1) I. Fast Evaporative Crystallization Method (FE): compound A (ca. 30 mg) was dissolved in minimum quantity the stated solvent while heating at 80° C. The resulted solutions were filtered using a 0.45 μm PTFE syringe filter and the filtrate was collected. The filtrate was evaporated using a rotavap.
as §1, with “II. Slow” for “I. Fast”, “(SE):” for “(FE):”, “covered with perforated aluminum foil and left to evaporate at ambient temperature.” for “evaporated using a rotavap.”
III. Slurry Crystallization at 25° C. using Form I of compound A: compound A (ca. 100 mg) was suspended in minimum quantity the stated solvent. The resulted slurries were allowed to stir at 25° C. for three days.
IV. Anti-Solvent Addition Crystallization: compound A (ca. 50 mg) was dissolved in solubilizing solvent. To that solution 200 μL anti-solvent was added slowly. These iterations were continued until the precipitation observed or maximum solvent quantity of ~25 mL. Many solvents were used as the solubilizing solvent in these experiments. Selection of anti-solvent for each solubilizing solvent is based on the miscibility between them.
V. Vapor Diffusion Crystallization: compound A (ca. 30 mg) was dissolved in solubilizing solvent and kept in a small (8 mL) vial. These vials were kept in a larger vial (40 mL) that had 15 mL anti-solvents and closed the vial cap to allow vapor diffusion between them. Many solvents were used as the solubilizing solvent in these experiments. Selection of anti-solvent for each solubilizing solvent is based on the miscibility between them. All the experiments were kept in undisturbed laboratory bench and observed periodically to see if any crystals were grown during that time.
Compound A was slurred in respective solvents and stirred at 25° C. for three days. A total of five unique XRPD patterns were identified and designated as Form I, Form II, Form III, Form IV, and Form V.
Compound A was dissolved in a suitable solvent while heating up to 80° C. and the resultant solutions were allowed to slowly evaporate at room temperature (25° C.).
Compound A was dissolved in suitable solvents. To those solutions anti-solvents were added to obtain the solids. The solvent and anti-solvent selection was based on the solubility of compound A and also miscibility between them.

[1] = solvent 14DOX, anti-solvent DEE
[2] = solvent 14DOX, anti-solvent T-Butyl Methyl Ether
[3] = solvent CHCl3, anti-solvent 4-Me-2Pentanone
[4] = solvent CHCl3, anti-solvent DEE
[5] = solvent CHCl3, anti-solvent T-Butyl Methyl Ether
[6] = solvent DCM, anti-solvent 4-Me-2Pentanone
[7] = solvent DCM, anti-solvent T-Butyl Methyl Ether
[8] = solvent DMSO, anti-solvent Water
[9] = solvent EtOAc, anti-solvent 4-Me-2Pentanone
[10] = solvent EtOAc, anti-solvent DEE
[11] = solvent EtOAc, anti-solvent T-Butyl Methyl Ether
[12] = solvent EtOH, anti-solvent 4-Me-2Pentanone
[13] = solvent EtOH, anti-solvent T-Butyl Methyl Ether
[14] = solvent EtOH, anti-solvent Water
[15] = solvent IPA, anti-solvent 4-Me-2Pentanone
[16] = solvent IPA, anti-solvent T-Butyl Methyl Ether
[17] = solvent MeOH, anti-solvent 4-Me-2Pentanone
[18] = solvent MeOH, anti-solvent T-Butyl Methyl Ether
[19] = solvent MeOH, anti-solvent Water
[20] = solvent THF, anti-solvent 4-Me-2Pentanone
[21] = solvent THF, anti-solvent T-Butyl Methyl Ether
[22] = solvent THF, anti-solvent Water

C[C@@H](Oc1ccc2[nH]nc(-c3ccc(N4CC5(C4)CN(S(C)(=O)=O)C5)nc3)c2c1)c1c(Cl)cncc1Cl [Compound A, 5-[(1R)-1-(3,5-dichloro-4-pyridyl)ethoxy]-3-[6-(2-methylsulfonyl-2,6-diazaspiro[3.3]heptan-6-yl)-3-pyridyl]-1H-indazole]
FE (solvent 4-Me 2-Pentanone): Not Dissolved
FE (solvent ACN): Form II
FE (solvent Acetone): Form II
FE (solvent CHCl3): Clear film
FE (solvent DEE): Not Dissolved
FE (solvent EtOAc): Form VIII
FE (solvent EtOH): Form IV
FE (solvent H2O): Not Dissolved
FE (solvent IPA): Form IV
FE (solvent MeOH): Form IV
FE (solvent THF): Clear film
FE (solvent tert-butyl methyl ether): Not Dissolved
Results from Slow Evaporation Crystallization Experiments (solvent 1,2-Propdiol): Form IV
Results from Slow Evaporation Crystallization Experiments (solvent 4-Me 2-Pentanone): Form I
Results from Slow Evaporation Crystallization Experiments (solvent ACN): Form IV
Results from Slow Evaporation Crystallization Experiments (solvent Acetone): Form IV and 5
Results from Slow Evaporation Crystallization Experiments (solvent DCM): Form IV
Results from Slow Evaporation Crystallization Experiments (solvent DEE): Form I
Results from Slow Evaporation Crystallization Experiments (solvent DMF): Form IV
Results from Slow Evaporation Crystallization Experiments (solvent DMSO): Form IV
Results from Slow Evaporation Crystallization Experiments (solvent EtOAc): Form IV
Results from Slow Evaporation Crystallization Experiments (solvent EtOH): Form IV
Results from Slow Evaporation Crystallization Experiments (solvent Eth. Gly): Form IV
Results from Slow Evaporation Crystallization Experiments (solvent H2O): Form I
Results from Slow Evaporation Crystallization Experiments (solvent IPA): Form IV
Results from Slow Evaporation Crystallization Experiments (solvent MeOH): Form II
Results from Slow Evaporation Crystallization Experiments (solvent T-ButylMethEther): Form I
Results from Slow Evaporation Crystallization Experiments (solvent THF): Form IV
Slurry (solvent 1,2-Propdiol): Form I
Slurry (solvent 4-Me 2-Pentanone): Form I
Slurry (solvent 14DOX): Form VI
Slurry (solvent ACN): Form III
Slurry (solvent Acetone): Form II
Slurry (solvent CHCl3): Form III
Slurry (solvent DCM): Form II
Slurry (solvent DEE): Form I
Slurry (solvent DMF): Form VII
Slurry (solvent EtOAc): Form I
Slurry (solvent EtOH): Form I
Slurry (solvent Eth. Gly): Form I
Slurry (solvent H2O): Form I
Slurry (solvent IPA): Form I
Slurry (solvent MeOH): Form II
Slurry (solvent T-ButylMethEther): Form I
Slurry (solvent THF): Form III
Results of Anti-Solvent Addition Studies (solvent 14DOX, anti-solvent 4-Me-2Pentanone): No XRPD -
Results of Anti-Solvent Addition Studies [1]: Form II
Results of Vapor Diffusion Studies [1]: Form VIII
Results of Anti-Solvent Addition Studies [2]: Form I
Results of Vapor Diffusion Studies [2]: Form VIII
Results of Anti-Solvent Addition Studies (solvent 14DOX, anti-solvent Water): Form V
Results of Anti-Solvent Addition Studies (solvent ACN, anti-solvent 4-Me-2Pentanone): No XRPD -
Results of Anti-Solvent Addition Studies (solvent ACN, anti-solvent DEE): No XRPD -
Results of Anti-Solvent Addition Studies (solvent ACN, anti-solvent T-Butyl Methyl Ether): Form IV
Results of Anti-Solvent Addition Studies (solvent ACN, anti-solvent Water): Form V +
Results of Anti-Solvent Addition Studies (solvent Acetone, anti-solvent 4-Me-2Pentanone): No XRPD -
Results of Anti-Solvent Addition Studies (solvent Acetone, anti-solvent DEE): Form II
Results of Anti-Solvent Addition Studies (solvent Acetone, anti-solvent T-Butyl Methyl Ether): Form I
Results of Anti-Solvent Addition Studies (solvent Acetone, anti-solvent Water): Form V
Results of Anti-Solvent Addition Studies [3]: Form II
Results of Vapor Diffusion Studies [3]: Form I +
Results of Anti-Solvent Addition Studies [4]: Form I
Results of Vapor Diffusion Studies [4]: Form VIII
Results of Anti-Solvent Addition Studies [5]: Form I
Results of Vapor Diffusion Studies [5]: Form I
Results of Anti-Solvent Addition Studies [6]: Form IV
Results of Vapor Diffusion Studies [6]: Form I +
Results of Anti-Solvent Addition Studies (solvent DCM, anti-solvent DEE): Form II
Results of Vapor Diffusion Studies (solvent DCM, anti-solvent DEE): Form IV
Results of Anti-Solvent Addition Studies [7]: Form I
Results of Vapor Diffusion Studies [7]: Form I +
Results of Anti-Solvent Addition Studies (solvent DMF, anti-solvent 4-Me-2Pentanone): No XRPD -
Results of Anti-Solvent Addition Studies (solvent DMF, anti-solvent DEE): Form VIII
Results of Anti-Solvent Addition Studies (solvent DMF, anti-solvent T-Butyl Methyl Ether): Form II
Results of Anti-Solvent Addition Studies (solvent DMF, anti-solvent Water): Form II
Results of Anti-Solvent Addition Studies (solvent DMSO, anti-solvent T-Butyl Methyl Ether): Form IV
Results of Anti-Solvent Addition Studies [8]: Amorphous
Results of Vapor Diffusion Studies [8]: Form IV +
Results of Anti-Solvent Addition Studies [9]: Form IV +
Results of Vapor Diffusion Studies [9]: Form IV
Results of Anti-Solvent Addition Studies [10]: Form IV
Results of Vapor Diffusion Studies [10]: Form IV
Results of Anti-Solvent Addition Studies [11]: Form I
Results of Vapor Diffusion Studies [11]: Form IV
Results of Anti-Solvent Addition Studies [12]: No XRPD -
Results of Vapor Diffusion Studies [12]: No XRPD -
Results of Anti-Solvent Addition Studies (solvent EtOH, anti-solvent DEE): Form IV
Results of Vapor Diffusion Studies (solvent EtOH, anti-solvent DEE): Form IV
Results of Anti-Solvent Addition Studies [13]: Form IV
Results of Vapor Diffusion Studies [13]: Form IV
Results of Anti-Solvent Addition Studies [14]: Form IV +
Results of Vapor Diffusion Studies [14]: Form IV +
Results of Anti-Solvent Addition Studies [15]: No XRPD -
Results of Vapor Diffusion Studies [15]: Form IV
Results of Anti-Solvent Addition Studies (solvent IPA, anti-solvent DEE): Form IV
Results of Vapor Diffusion Studies (solvent IPA, anti-solvent DEE): Form IV
Results of Anti-Solvent Addition Studies [16]: Form IV
Results of Vapor Diffusion Studies [16]: Form IV +
Results of Anti-Solvent Addition Studies (solvent IPA, anti-solvent Water): Form IV +
Results of Anti-Solvent Addition Studies [17]: No XRPD -
Results of Vapor Diffusion Studies [17]: No XRPD -
Results of Anti-Solvent Addition Studies (solvent MeOH, anti-solvent DEE): Form II
Results of Anti-Solvent Addition Studies [18]: Form II
Results of Vapor Diffusion Studies [18]: Form II
Results of Anti-Solvent Addition Studies [19]: Form II
Results of Vapor Diffusion Studies [19]: Form II
Results of Anti-Solvent Addition Studies [20]: Form I
Results of Vapor Diffusion Studies [20]: Form II
Results of Anti-Solvent Addition Studies (solvent THF, anti-solvent DEE): Form II
Results of Vapor Diffusion Studies (solvent THF, anti-solvent DEE): Form IV
Results of Anti-Solvent Addition Studies [21]: Form I
Results of Vapor Diffusion Studies [21]: Form VIII
Results of Anti-Solvent Addition Studies [22]: Form V
Results of Vapor Diffusion Studies [22]: Form V
